# Measured values published in publication PMC4747407 (Oncotarget, 2015).
# Entries after “also recorded” stand apart in the source; their conditions may differ.
# Columns and labels:
# [1] = target: tankyrase; conditions: read-out: reported IC50 values for tankyrase inhibition; various assays; cited from earlier work
# [2] = system: TNKS1/2; parameters: method as in Wahlberg et al 48; conditions: ref Wahlberg et al 48; cited from earlier work
# [3] = cited from earlier work
# [4] = system: SW480 cells; assay: Western blot of Wnt/β-catenin pathway proteins in SW480 cells; type: cell-based, human; conditions: 10 μmol/L, 24 h
# Protocol: (§1) SW480, DLD-1 (Wnt-dependent) or RKO (Wnt-independent) cells were plated in 6-well plates and incubated overnight. Cells were treated with E7449, olaparib or XAV939 and incubated for various time periods prior to processing by SDS PAGE and western blot analysis. […] Following binding of appropriate secondary antibodies labeled with IRDye® (LI-COR), image analysis was performed with Image Studio software for the LI-COR Odyssey system (version 2.1.10).
# [5] = system: SW480 cells; assay: Gene expression profiling of Wnt-related genes (TLDA qPCR) in SW480 cells; type: cell-based, human; conditions: 3 μmol/L (XAV939 also 30 μmol/L), 72 h
# Protocol: (§2) Gene expression profiling was performed using a custom designed TaqMan® low density array (TLDA). Total RNA was isolated from cell lines using RNeasy Mini Kit (Qiagen) and from xenograft tumor FFPE tissue using RecoverAll Total Nucleic Acid Isolation (Ambion). Human and mouse, real-time qPCR TLDAs (384-well micro fluidic card) were designed with genes selected based on their involvement in Wnt signalling (see supplementary Tables 2 and 3 for lists of genes on TLDAs). cDNA was generated from total RNA using High Capacity cDNA Reverse Transcription kit (Life Technologies) or SuperScript® VILO™ Master Mix (Life Technologies). 100 ng cDNA was combined with TaqMan® Gene Expression Master Mix (Life Technologies) for the cell lines and TaqMan® Advanced FAST Master Mix (Life Technologies) for the xenograft tissue for each port (in duplicate). TLDAs were run based on recommended cycling times for each master mix. Ct values were calculated and imported into GeneData Analyst for further analysis. To calculate the ΔCts, gene expression was normalized to several housekeeping genes. Relative fold change was calculated by comparison to the DMSO or vehicle-treated controls for each sample. A student's t-test was used to calculate P-values and hierarchical clustering used Manhattan distance and complete linkage plotting of selected significant genes to generate heat maps.
# [6] = system: DLD-1 cells; assay: Western blot of Wnt/β-catenin pathway proteins in DLD-1 cells; type: cell-based, human; conditions: 24 h
# Protocol: as §1
# [7] = system: wild type DT40 cells; assay: cells; conditions: DT40, 48 h, read-out: IC50, cell proliferation, wild type DT40 cells
# [8] = system: DNA repair mutant DT40 cell lines; assay: Proliferation assay in panel of isogenic DNA repair mutant DT40 cell lines (XTT); type: cell-based, avian; conditions: versus wild type DT40
# [9] = system: PARP2; conditions: read-out: reported IC50, PARP2; cited from earlier work
# [10] = system: TNKS1; conditions: read-out: reported IC50, TNKS1; cited from earlier work
# [11] = system: B16-F10 mouse melanoma isografts; assay: B16-F10 mouse melanoma isograft model, combination with TMZ; type: in vivo; conditions: E7449 100 mg/kg or TMZ 50 mg/kg, oral once daily
# Protocol: All studies were performed according to IACUC approved protocols. The general health of mice was monitored daily.
# TMZ combination in B16-F10 isograft model: female C57BL/6 mice were inoculated subcutaneously with B16-F10 cells (2 × 10^5). Following randomization by body weight, drug treatment was initiated 1 day post-inoculation. […] TMZ was administered daily on days 1 to 5 at 50 mg/kg as a single agent or in combination. […] The control group was treated with vehicle (0.5% methyl cellulose in water). E7449 or vehicle was administered first and when dosing of all animals was complete TMZ was administered to animals receiving the combination.
# [12] = system: MX-1 human breast cancer xenografts; type: in vivo; conditions: E7449 100 mg/kg oral once daily; carboplatin single i.v. dose 60 mg/kg
# Protocol: (§3) All studies were performed according to IACUC approved protocols. The general health of mice was monitored daily. Tumor volume was determined by caliper measurements (mm), using the formula (l x w^2)/2 = mm^3, where l and w refer to the larger and smaller perpendicular dimensions collected at each measurement. Tumor dimensions were recorded twice per week starting when tumors reached an approximate size of 100 to 150 mm^3. Body weights were recorded twice per week and relative body weight was calculated as follows: Relative body weight = (body weight on day of measurement/body weight on first day of treatment).
# Carboplatin combination in MX-1 orthotopic xenografts: female nude mice were implanted with MX-1 cells (0.5 × 10^6) in the thoracic mammary fat pad. Treatment started on day 3 when the average tumor size was approximately 50 mm^3. Carboplatin was administered as a single intravenous dose at 60 mg/kg on day 3 or 4.
# [13] = system: Wnt1 model tumors; assay: Gene expression of Wnt-related genes in Wnt1 model tumors (mouse TLDA); type: in vivo; conditions: 7 days of drug treatment
# Protocol: as §2
# [14] = system: Wnt1 (int-1) mammary tumors; assay: Wnt1 subcutaneous mammary tumor model; conditions: E6201 40 mg/kg i.v. Q4Dx3; for tumor growth, single agent: E7449 100 mg/kg once daily, Wnt-C59 10 mg/kg once daily
# Protocol: as §3
# Tumor pieces cut to approximately 2 mm^3 in size were injected subcutaneously in female nude mice. Treatment was initiated approximately 9–10 days post-implantation of mice.
smiles,measurement,setting,value
C[C@]1(c2nc3c(C(N)=O)cccc3[nH]2)CCCN1 [veliparib],IC50,[1],[…]
same,binding to TNKS1/2 catalytic domain,[2],no significant binding
CS(=O)(=O)c1ccc(-c2nnc(/C=C/c3nnc(-c4ccc(C#N)cc4)o3)n2-c2ccccc2Cl)nc1 [G007-LK],single agent antitumor activity,[3],inhibit tumor growth as a single agent in certain models
same,therapeutic window,[3]; in vivo,very narrow therapeutic window because of intestinal toxicity
NC(=O)c1cccc2cn(-c3ccc([C@@H]4CCCNC4)cc3)nc12 [niraparib],IC50,[1],600 nM
Oc1nc(-c2ccc(C(F)(F)F)cc2)nc2c1CSCC2 [XAV939],Cyclin D1 protein levels,[4],modest decrease
same,axin2 protein level,[4],Increased axin2
same,reduction of active (non-phosphorylated) β-catenin level,[4],~ 90%
same,reduction of total β-catenin level,[4],~75%
same,"expression of 6 E7449-responsive genes (NOS3, LGR5, LEF1, NKD1, CYR61, MMP7)",[5],altered expression of these 6 genes in the same direction
same,effect on levels of β-catenin,[6],robust effect on levels of β-catenin was not observed
O=C(c1cc(Cc2n[nH]c(=O)c3ccccc23)ccc1F)N1CCN(C(=O)C2CC2)CC1 [olaparib],Cyclin D1 protein levels,[4],unaffected
same,axin2 protein level,[4],remained at basal levels
same,β-catenin protein levels,[4],remained unchanged
same,"expression of 6 E7449-responsive genes (NOS3, LGR5, LEF1, NKD1, CYR61, MMP7)",[5],no effect or altered expression in the opposite direction
same,IC50,[7],2100 nM
same,sensitivity of DT40 cells lacking PARP expression,[8],A similar observation
same,binding to TNKS1/2 catalytic domain,[2],no significant binding
"Cn1nnc2c(C(N)=O)ncn2c1=O [TMZ, temozolomide, reference compound]","growth of subcutaneous tumors, single agent",[11],moderately inhibited
"N.N.O=C([O-])C1(C(=O)[O-])CCC1.[Pt+2] [carboplatin, reference compound]","antitumor activity, single agent",[12],"modest, but statistically significant versus vehicle; also recorded: only modest antitumor activity"
"Cc1cc(-c2ccc(CC(=O)Nc3ccc(-c4cccnc4)cc3)cc2)ccn1 [Wnt-C59, reference compound]","expression of Wnt-related genes CAR2, FZD9, LEF1, VIL1 in tumors",[13],significant alteration
same,"tumor growth, single agent",[14],significant antitumor activity; also recorded: significantly inhibited tumor growth
CNCc1ccc(-c2[nH]c3cc(F)cc4c3c2CCNC4=O)cc1 [rucaparib],binding to TNKS1/2 catalytic domain,[2],binding to the catalytic domain of multiple PARP family members including tankyrases
"CCNc1cc(O)c2c(c1)/C=C/C[C@H](O)[C@H](O)C(=O)/C=C\[C@@H](C)[C@H](C)OC2=O [E6201, reference compound]",decreased body weight,[14]; recovered post-treatment,< 10%
same,"tumor growth, single agent",[14],No antitumor activity
